Measured values from US20220370467A1, “USING OF A PPAR-DELTA AGONIST IN THE TREATMENT OF KIDNEY DISEASE” (Reneo Pharmaceuticals, Inc., priority 2019, published 2022).

How the values were obtained:
hPPARγ = target: T1, hPPARγ (Homo sapiens, UniProt P37231); assay: in vitro assay on human PPAR subtypes (transactivation): hPPARγ; assay type: cell-based
T1 construct: expressed in transfected cells; host or cells: HEK293
T1 sequence (P37231 238-503 limits assumed): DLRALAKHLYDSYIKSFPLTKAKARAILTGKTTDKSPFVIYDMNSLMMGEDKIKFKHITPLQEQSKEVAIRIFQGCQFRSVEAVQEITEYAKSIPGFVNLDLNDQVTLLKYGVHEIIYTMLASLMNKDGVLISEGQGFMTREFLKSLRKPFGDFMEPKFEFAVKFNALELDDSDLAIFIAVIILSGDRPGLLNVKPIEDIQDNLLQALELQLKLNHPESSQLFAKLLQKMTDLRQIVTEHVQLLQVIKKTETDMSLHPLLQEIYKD
Text: “Activation” here is defined as the abovementioned downstream response, which in the case of PPAR's is gene transcription. Gene transcription may be measured indirectly as downstream production of proteins reflective of the activation of the particular PPAR subtype under study. Alternatively, an artificial reporter construct may be employed to study the activation of the individual PPAR's expressed in cells. The ligand binding domain of the particular receptor to be studied may be fused to the DNA binding domain of a transcription factor, which produces convenient laboratory readouts, such as the yeast GAL4 transcription factor DNA binding domain. The fusion protein may be transfected into a laboratory cell line along with a Gal4 enhancer, which effects the expression of the luciferase protein. When such a system is transfected into a laboratory cell line, binding of a receptor agonist to the fusion protein will result in light emission.
The PPAR transient transactivation assay may be based on transient transfection into human HEK293 cells of two plasmids encoding a chimeric test protein and a reporter protein respectively. […] The amount of luciferase protein is measured by light emission after addition of the appropriate substrate. […]

LXRα = target: T2, LXRα (Homo sapiens, UniProt Q13133); assay: activity on nuclear receptor LXRα
T2 sequence (Q13133 1-447): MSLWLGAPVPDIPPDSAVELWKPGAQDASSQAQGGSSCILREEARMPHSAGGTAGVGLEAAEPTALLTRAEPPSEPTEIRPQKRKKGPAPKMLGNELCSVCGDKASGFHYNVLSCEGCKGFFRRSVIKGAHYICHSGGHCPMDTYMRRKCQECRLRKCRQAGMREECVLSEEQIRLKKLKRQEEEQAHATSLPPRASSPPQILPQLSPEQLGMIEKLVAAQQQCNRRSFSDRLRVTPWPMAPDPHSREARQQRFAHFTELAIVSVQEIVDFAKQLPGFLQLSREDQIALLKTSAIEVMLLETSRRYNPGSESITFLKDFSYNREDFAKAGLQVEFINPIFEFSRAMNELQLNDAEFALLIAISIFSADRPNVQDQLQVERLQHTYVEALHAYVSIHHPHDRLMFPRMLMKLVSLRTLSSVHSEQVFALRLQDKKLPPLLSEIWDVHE

FXR = target: T3, FXR (Homo sapiens, UniProt Q96RI1); assay: activity on nuclear receptor FXR
T3 sequence (Q96RI1 1-486): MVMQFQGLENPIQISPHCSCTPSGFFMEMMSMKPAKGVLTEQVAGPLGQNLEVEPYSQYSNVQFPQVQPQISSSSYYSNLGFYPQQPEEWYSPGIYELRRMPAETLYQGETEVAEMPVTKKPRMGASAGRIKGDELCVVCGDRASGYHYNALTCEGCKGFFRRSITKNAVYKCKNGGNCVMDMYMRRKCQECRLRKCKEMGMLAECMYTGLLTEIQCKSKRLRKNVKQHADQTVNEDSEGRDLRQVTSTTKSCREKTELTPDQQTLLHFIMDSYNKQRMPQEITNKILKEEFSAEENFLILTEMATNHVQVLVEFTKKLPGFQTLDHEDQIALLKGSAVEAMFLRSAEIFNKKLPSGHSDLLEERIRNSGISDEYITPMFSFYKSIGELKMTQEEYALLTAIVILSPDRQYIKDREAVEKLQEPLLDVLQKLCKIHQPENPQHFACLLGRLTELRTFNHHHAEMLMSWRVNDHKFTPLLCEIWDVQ

- agonist type on PPARγ (hPPARγ): partial agonist
- activity on PPARγ in transactivation assays (hPPARγ; in some cases): negligible activity
- activity on LXRα (LXRα): did not show any
- activity on FXR (FXR): did not show any
Compound: Cc1cc(OC/C=C(/c2ccc(F)cc2)c2ccc(C#CCN3CCOCC3)cc2)ccc1OCC(=O)O [Compound 1, (E)-[4-[3-(4-Fluorophenyl)-3-[4-[3-(morpholin-4-yl)propynyl]phenyl]allyloxy]-2-methyl-phenoxy]acetic acid]
